Source: patent US20230183218A1, “CONDENSED SUBSTITUTED HYDROPYRROLES AS ANTAGONISTS OF THE MUSCARINIC ACETYLCHOLINE RECEPTOR M4” (Vanderbilt University, priority 2020, published 2023)

Legend:
[1] = target: T1, Human M4 (Homo sapiens, UniProt P08173); assay: mAChR M4 cell-based functional assay (calcium flux, antagonist mode vs EC80 acetylcholine), human M4/Gqi5/CHO-K1 cells; details: for remaining activity at 30 µM: CHO-K1, % ACh maximum at 30 μM, human M4, read-out: Human M4 Emin (%); for IC50: decrease of response elicited by EC80 acetylcholine, human M4/Gqi5 CHO-K1 cells
T1 construct: expressed in transfected cells; host or cells: CHO-K1 (ATCC), stably co-expressing chimeric G protein Gqi5
T1 sequence (P08173 1-479): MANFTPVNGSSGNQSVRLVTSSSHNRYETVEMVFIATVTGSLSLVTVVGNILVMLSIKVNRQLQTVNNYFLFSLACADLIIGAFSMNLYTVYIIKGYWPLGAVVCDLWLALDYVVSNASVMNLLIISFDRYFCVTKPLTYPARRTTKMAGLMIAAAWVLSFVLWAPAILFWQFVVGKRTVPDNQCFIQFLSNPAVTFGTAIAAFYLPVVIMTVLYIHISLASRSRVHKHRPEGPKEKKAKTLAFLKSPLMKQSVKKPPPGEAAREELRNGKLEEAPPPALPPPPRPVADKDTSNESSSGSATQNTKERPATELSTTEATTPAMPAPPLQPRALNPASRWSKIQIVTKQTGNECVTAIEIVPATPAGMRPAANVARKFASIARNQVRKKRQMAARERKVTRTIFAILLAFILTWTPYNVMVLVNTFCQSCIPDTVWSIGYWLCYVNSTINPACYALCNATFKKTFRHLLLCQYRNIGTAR
Procedure: (§1) Human or rat M4 cDNA, along with the chimeric G protein Gqi5, were transfected into Chinese hamster ovary (CHO-K1) cells purchased from the American Type Culture Collection using Lipofectamine2000. M4/Gqi5/CHO cells were grown in Ham's F-12 medium containing 10% heat-inactivated fetal bovine serum (FBS), 20 mM HEPES, 500 μg/mL G418 sulfate, and 200 μg/mL Hygromycin B.
(§2) For high throughput measurement of agonist-evoked increases in intracellular calcium, CHO-K1 cells stably expressing muscarinic receptors were plated in growth medium lacking G418 and hygromycin at 15,000 cells/20 μL/well in Greiner 384-well black-walled, tissue culture (TC)-treated, clear-bottom plates (VWR). Cells were incubated overnight at 37° C. and 5% CO2. The next day, cells were washed using an ELX 405 (BioTek) with assay buffer; the final volume was then aspirated to 20 μL. Next, 20 μL of a 2.3 μM stock of Fluo-4/acetoxymethyl ester (Invitrogen, Carlsbad, Calif.), prepared as a 2.3 mM stock in DMSO and mixed in a 1:1 ratio with 10% (w/v) Pluronic F-127 and diluted in assay buffer, was added to the wells and the cell plates were incubated for 50 min at 37° C. and 5% CO2. Dye was removed by washing with the ELX 405 and the final volume was aspirated to 20 μL. Compound master plates were formatted in a 10 point concentration-response curve (CRC) format (1:3 dilutions) in 100% DMSO with a starting concentration of 10 or 1 mM using a BRAVO liquid handler (Agilent). Test compound CRCs were then transferred to daughter plates (240 nL) using the Echo acoustic plate reformatter (Labcyte, Sunnyvale, Calif.) and then diluted into assay buffer (40 μL) to a 2× stock using a Thermo Fisher Combi (Thermo Fisher Scientific, Waltham, Mass.).
(§3) Calcium flux was measured using the Functional Drug Screening System (FDSS) 6000 or 7000 (Hamamatsu Corporation, Tokyo, Japan) as an increase in the fluorescent static ratio. Compounds were applied to cells (20 μL, 2×) using the automated system of the FDSS at 2 seconds into the protocol and the data were collected at 1 Hz. At 143 s, 10 μL of an EC20 concentration of the muscarinic receptor agonist acetylcholine was added (5×), followed by the addition of 12 μL of an EC80 concentration of acetylcholine at the 268 s time point (5×). Agonist activity was analyzed as a concentration-dependent increase in calcium mobilization upon compound addition. Positive allosteric modulator activity was analyzed as a concentration-dependent increase in the EC20 acetylcholine response. Antagonist activity was analyzed as a concentration-dependent decrease in the EC80 acetylcholine response; for the purposes of the tables herein, an IC50 (inhibitory concentration 50) was calculated as a concentration-dependent decrease of the response elicited by an EC80 concentration of acetylcholine. Concentration-response curves were generated using a four-parameter logistical equation in XLFit curve fitting software (IDBS, Bridgewater, N.J.) for Excel (Microsoft, Redmond, Wash.) or Prism (GraphPad Software, Inc., San Diego, Calif.) or the Dotmatics software platform (Dotmatics, Bishop's Stortford, UK).
(§4) Compounds were synthesized as described above. Activity (IC50 and Emin) was determined in the mAChR M4 cell-based functional assay as described above and the data are shown in Table 2.

[2] = target: T2, Rat M4 (Rattus norvegicus, UniProt P08485); assay: mAChR M4 cell-based functional assay (calcium flux, antagonist mode vs EC80 acetylcholine), rat M4/Gqi5/CHO-K1 cells; details: for remaining activity at 30 µM: CHO-K1, % ACh maximum at 30 μM, rat M4, read-out: Rat M4 Emin (%); for IC50: decrease of response elicited by EC80 acetylcholine, rat M4/Gqi5 CHO-K1 cells
T2 construct: expressed in transfected cells; host or cells: CHO-K1 (ATCC), stably co-expressing chimeric G protein Gqi5
T2 sequence (P08485 1-478): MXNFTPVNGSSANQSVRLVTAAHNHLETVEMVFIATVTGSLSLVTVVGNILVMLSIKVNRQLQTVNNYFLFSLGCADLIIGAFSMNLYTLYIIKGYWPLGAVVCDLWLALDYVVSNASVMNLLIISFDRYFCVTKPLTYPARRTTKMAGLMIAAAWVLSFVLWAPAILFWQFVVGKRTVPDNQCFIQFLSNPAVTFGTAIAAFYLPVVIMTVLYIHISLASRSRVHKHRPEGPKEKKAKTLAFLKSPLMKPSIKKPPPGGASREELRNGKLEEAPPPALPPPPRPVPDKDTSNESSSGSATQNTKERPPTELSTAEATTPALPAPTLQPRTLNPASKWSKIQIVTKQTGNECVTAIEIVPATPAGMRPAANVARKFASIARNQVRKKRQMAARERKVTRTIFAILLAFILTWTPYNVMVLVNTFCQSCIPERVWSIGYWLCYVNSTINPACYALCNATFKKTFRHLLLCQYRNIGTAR
Procedure: as §1, §2, §3, §4

Question: Which results are given for `O=S(=O)(c1ccccc1)c1ccc(N[C@H]2C[C@@H]3CN(Cc4ccc5c(c4)OC(F)(F)O5)C[C@@H]3C2)nn1` [compound 26, (3aR,5s,6aS)-2-((2,2-difluorobenzo[d][1,3]dioxol-5-yl)methyl)-N-(6-(phenylsulfonyl)pyridazin-3-yl)octahydrocyclopenta[c]pyrrol-5-amine]?
Answer: remaining activity at 30 µM [1]: 3%; IC50 [1]: 1000 nM; remaining activity at 30 µM [2]: 14%; IC50 [2]: 3000 nM

Question: `Fc1ccc(Cl)c(-c2ccc(N[C@H]3C[C@@H]4CN(C5Cc6ccccc6C5)C[C@@H]4C3)nn2)c1` [compound 76, (3aR,5s,6aS)-N-(6-(2-chloro-5-fluorophenyl)pyridazin-3-yl)-2-(2,3-dihydro-1H-inden-2-yl)octahydrocyclopenta[c]pyrrol-5-amine] was tested. Which remaining activity at 30 µM [1] did it give?
Answer: 3%

Question: And the IC50 [1]?
Answer: 189 nM

Question: And the remaining activity at 30 µM [2]?
Answer: 4%

Question: What about the IC50 [2] of the same molecule?
Answer: 350 nM

Question: How did the remaining activity at 30 µM [1] turn out when `Fc1ccc(Cl)c(-c2ccc(N[C@H]3C[C@@H]4CN(C5COC5)C[C@@H]4C3)nn2)c1` [compound 14, (3aR,5s,6aS)-N-(6-(2-chloro-5-fluorophenyl)pyridazin-3-yl)-2-(oxetan-3-yl)octahydrocyclopenta[c]pyrrol-5-amine] was run?
Answer: 21%

Question: And the IC50 [1]?
Answer: 5030 nM

Question: And the remaining activity at 30 µM [2]?
Answer: 51%

Question: What about the IC50 [2] of the same molecule?
Answer: > 10000 nM

Question: Which results are given for `Cn1cc2cc(-c3ccc(N[C@H]4C[C@@H]5CN(C6CCOCC6)C[C@@H]5C4)nn3)ccc2n1` [compound 62, (3aR,5s,6aS)-N-(6-(2-methyl-2H-indazol-5-yl)pyridazin-3-yl)-2-(tetrahydro-2H-pyran-4-yl)octahydrocyclopenta[c]pyrrol-5-amine]?
Answer: remaining activity at 30 µM [1]: 9%; IC50 [1]: 1730 nM; remaining activity at 30 µM [2]: 11%; IC50 [2]: 2130 nM

Question: How did the remaining activity at 30 µM [1] turn out when `Cn1cc2cc(-c3ccc(N[C@H]4C[C@@H]5CN(C6CCOC(C)(C)C6)C[C@@H]5C4)nn3)ccc2n1` (stereo partly drawn) [compound 63, (3aR,5s,6aS)-2-(2,2-dimethyltetrahydro-2H-pyran-4-yl)-N-(6-(2-methyl-2H-indazol-5-yl)pyridazin-3-yl)octahydrocyclopenta[c]pyrrol-5-amine] was run?
Answer: 3%

Question: What about the IC50 [1] of the same molecule?
Answer: 9.53 nM

Question: What about the remaining activity at 30 µM [2] of the same molecule?
Answer: 5%

Question: And the IC50 [2]?
Answer: 374 nM

Question: How did the remaining activity at 30 µM [1] turn out when `O=C(Nc1ccc(F)cc1)c1ccc(N[C@H]2C[C@@H]3CN(CC4CCOCC4)C[C@@H]3C2)nn1` [compound 10, N-(4-fluorophenyl)-6-(((3aR,5s,6aS)-2-((tetrahydro-2H-pyran-4-yl)methyl)octahydrocyclopenta[c]pyrrol-5-yl)amino)pyridazine-3-carboxamide] was run?
Answer: 4%

Question: And the IC50 [1]?
Answer: 543 nM

Question: And the remaining activity at 30 µM [2]?
Answer: 9%

Question: And the IC50 [2]?
Answer: 4190 nM

Question: What does the source list for `Cc1cccnc1CN1C[C@H]2C[C@H](Nc3ccc(S(=O)(=O)c4ccccc4)nn3)C[C@H]2C1` [compound 40, (3aR,5s,6aS)-2-((3-methylpyridin-2-yl)methyl)-N-(6-(phenylsulfonyl)pyridazin-3-yl)octahydrocyclopenta[c]pyrrol-5-amine]?
Answer: remaining activity at 30 µM [1]: 5%; IC50 [1]: 221 nM; remaining activity at 30 µM [2]: 15%; IC50 [2]: 2890 nM

Question: `Cc1cc(CN2C[C@H]3C[C@H](Nc4ccc([S+]([O-])c5ccccc5)nn4)C[C@H]3C2)ccc1F` (stereo partly drawn) [compound 32, (3aR,5s,6aS)-2-(4-fluoro-3-methylbenzyl)-N-(6-(phenylsulfinyl)pyridazin-3-yl)octahydrocyclopenta[c]pyrrol-5-amine] was tested. Which remaining activity at 30 µM [1] did it give?
Answer: 3%

Question: And the IC50 [1]?
Answer: 242 nM

Question: And the remaining activity at 30 µM [2]?
Answer: 3%

Question: And the IC50 [2]?
Answer: 970 nM

Question: How did the remaining activity at 30 µM [1] turn out when `Fc1ccc(Cl)c(-c2ccc(N[C@H]3C[C@@H]4CN(C5CCC6(CCOCC6)CC5)C[C@@H]4C3)nn2)c1` [compound 78, (3aR,5s,6aS)-N-(6-(2-chloro-5-fluorophenyl)pyridazin-3-yl)-2-(3-oxaspiro[5.5]undecan-9-yl)octahydrocyclopenta[c]pyrrol-5-amine] was run?
Answer: 3%

Question: What about the IC50 [1] of the same molecule?
Answer: 2.3 nM

Question: What about the remaining activity at 30 µM [2] of the same molecule?
Answer: 3%

Question: What about the IC50 [2] of the same molecule?
Answer: 102 nM

Question: For `O=S(=O)(c1ccc(N[C@H]2C[C@@H]3CN(CC4CCOCC4)C[C@@H]3C2)nn1)C1CCCCC1` [compound 34, (3aR,5s,6aS)-N-(6-(cyclohexylsulfonyl)pyridazin-3-yl)-2-((tetrahydro-2H-pyran-4-yl)methyl)octahydrocyclopenta[c]pyrrol-5-amine], which remaining activity at 30 µM [1] is on record?
Answer: 4%

Question: What about the IC50 [1] of the same molecule?
Answer: 7.75 nM

Question: What about the remaining activity at 30 µM [2] of the same molecule?
Answer: 5%

Question: And the IC50 [2]?
Answer: 119 nM

Question: `CC1(C)CCC(N2C[C@H]3C[C@H](Nc4ccc(-c5cc(F)ccc5Cl)nn4)C[C@H]3C2)CC1` [compound 68, (3aR,5s,6aS)-N-(6-(2-chloro-5-fluorophenyl)pyridazin-3-yl)-2-(4,4-dimethylcyclohexyl)octahydrocyclopenta[c]pyrrol-5-amine] was tested. Which remaining activity at 30 µM [1] did it give?
Answer: 3%

Question: And the IC50 [1]?
Answer: 2.79 nM

Question: And the remaining activity at 30 µM [2]?
Answer: 2%

Question: What about the IC50 [2] of the same molecule?
Answer: 102 nM

Question: Which remaining activity at 30 µM [1] does the source give for `O=S(=O)(c1ccccc1)c1ccc(N[C@H]2C[C@@H]3CN(Cc4ccccn4)C[C@@H]3C2)nn1` [compound 25, (3aR,5s,6aS)-N-(6-(phenylsulfonyl)pyridazin-3-yl)-2-(pyridin-2-ylmethyl)octahydrocyclopenta[c]pyrrol-5-amine] here?
Answer: 6%

Question: And the IC50 [1]?
Answer: 436 nM

Question: And the remaining activity at 30 µM [2]?
Answer: 26%

Question: What about the IC50 [2] of the same molecule?
Answer: > 10000 nM

Question: Which remaining activity at 30 µM [1] does the source give for `Fc1ccc(Cl)c(-c2ccc(N[C@H]3C[C@@H]4CN(C5CCCCC5)C[C@@H]4C3)nn2)c1` [compound 12, (3aR,5s,6aS)-N-(6-(2-chloro-5-fluorophenyl)pyridazin-3-yl)-2-cyclohexyloctahydrocyclopenta[c]pyrrol-5-amine] here?
Answer: 4%

Question: And the IC50 [1]?
Answer: 2.85 nM

Question: What about the remaining activity at 30 µM [2] of the same molecule?
Answer: 5%

Question: What about the IC50 [2] of the same molecule?
Answer: 445 nM

Question: Which results are given for `Fc1ccc(Cl)c(-c2ccc(N[C@H]3C[C@@H]4CN(C5CCC6(CCCCC6)CC5)C[C@@H]4C3)nn2)c1` [compound 77, (3aR,5s,6aS)-N-(6-(2-chloro-5-fluorophenyl)pyridazin-3-yl)-2-(spiro[5.5]undecan-3-yl)octahydrocyclopenta[c]pyrrol-5-amine]?
Answer: remaining activity at 30 µM [1]: 3%; IC50 [1]: 25.7 nM; remaining activity at 30 µM [2]: 7%; IC50 [2]: 387 nM
